Reference: patent publication US20120142705A1, “ISATIN AND OXINDOLE COMPOUNDS” (priority 2010, published 2012)

Target: T1, Recombinant human liver GK1 (GST-GK) (Homo sapiens, UniProt P35557)
T1 construct: made in house; host or cells: E. coli
T1 sequence (P35557 1-466 isoform P35557-2): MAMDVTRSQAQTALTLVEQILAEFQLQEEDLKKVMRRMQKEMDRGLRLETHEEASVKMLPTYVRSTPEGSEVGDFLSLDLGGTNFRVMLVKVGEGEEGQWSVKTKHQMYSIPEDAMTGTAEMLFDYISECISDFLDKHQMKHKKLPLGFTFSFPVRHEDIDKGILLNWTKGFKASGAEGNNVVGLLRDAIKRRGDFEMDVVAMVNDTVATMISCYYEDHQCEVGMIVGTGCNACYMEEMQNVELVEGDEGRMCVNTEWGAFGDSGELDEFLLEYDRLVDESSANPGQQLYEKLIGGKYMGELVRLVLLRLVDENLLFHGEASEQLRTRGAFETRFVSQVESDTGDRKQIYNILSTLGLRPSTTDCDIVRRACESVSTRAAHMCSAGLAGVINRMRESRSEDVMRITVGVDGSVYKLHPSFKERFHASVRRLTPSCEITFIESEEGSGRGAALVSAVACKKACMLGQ
Assay: In vitro glucokinase activity, G6PDH-coupled spectrophotometric assay
Assay type: biochemical
Details: 5 mM D-glucose, 30° C.; for SC1.5 (concentration of activator that produced a 50% increase in the activity of GK): pH 7.1
Method in brief: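 GST-fused human liver GK1 from E. coli, run at 30° C. in pH 7.1 HEPES with 5 mM glucose, 1 mM ATP and 10% DMSO, coupled via G6PDH to NADH. OD340 rate measured after enzyme start; SC1.5 is the activator concentration raising activity 50% over DMSO control.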

Row | SC1.5 (concentration of activator that produced a 50% increase in the activity of GK) [µM] | fold induction at 30 µM | SMILES
1 | 16.89 | – | CC(C)CC(C(=O)Nc1ccccn1)N1C(=O)C(=O)c2cc(Cl)ccc21 (centres unmarked) [Example 102, 2-(5-Chloro-2,3-dioxo-2,3-dihydro-indol-1-yl)-4-methyl-pentanoic acid pyridin-2-ylamide]
2 | – | 1.3 | CC(C)CC(C(=O)Nc1cnccn1)N1C(=O)C(=O)c2cc(Cl)ccc21 (centres unmarked) [Example 103, 2-(5-Chloro-2,3-dioxo-2,3-dihydro-indol-1-yl)-4-methyl-pentanoic acid pyrazin-2-ylamide]
3 | – | 1.21 | CC(C)CC(C(=O)Nc1ccn(C)n1)N1C(=O)C(=O)c2cc(Cl)ccc21 (centres unmarked) [Example 104, 2-(5-Chloro-2,3-dioxo-2,3-dihydro-indol-1-yl)-4-methyl-pentanoic acid (1-methyl-1H-pyrazol-3-yl)-amide]
4 | 6.74 | – | CC(C)CC(C(=O)Nc1nccs1)N1C(=O)Cc2cc(Cl)ccc21 (centres unmarked) [Example 105, 2-(5-Chloro-2-oxo-2,3-dihydro-indol-1-yl)-4-methyl-pentanoic acid thiazol-2-ylamide]
5 | 20.67 | – | CC(C)CC(C(=O)Nc1cnccn1)N1C(=O)Cc2cc(Cl)ccc21 (centres unmarked) [Example 106, 2-(5-Chloro-2-oxo-2,3-dihydro-indol-1-yl)-4-methyl-pentanoic acid pyrazin-2-ylamide]
6 | – | 1.22 | CC(C)CC(C(=O)Nc1ccn(C)n1)N1C(=O)Cc2cc(Cl)ccc21 (centres unmarked) [Example 107, 2-(5-Chloro-2-oxo-2,3-dihydro-indol-1-yl)-4-methyl-pentanoic acid (1-methyl-1H-pyrazol-3-yl)-amide]
7 | 4.95 | – | CC(C)CC(C(=O)Nc1ccccn1)N1C(=O)Cc2cc(Cl)ccc21 (centres unmarked) [Example 108, 2-(5-Chloro-2-oxo-2,3-dihydro-indol-1-yl)-4-methyl-pentanoic acid pyridin-2-ylamide]
8 | 3.29 | – | CC(C)CC(C(=O)Nc1nccs1)N1C(=O)C(=O)c2ccc(Cl)cc21 (centres unmarked) [Example 109, 2-(6-Chloro-2,3-dioxo-2,3-dihydro-indol-1-yl)-4-methyl-pentanoic acid thiazol-2-ylamide]
9 | 1.49 | – | CC(C)CC(C(=O)Nc1ccccn1)N1C(=O)C(=O)c2ccc(Cl)cc21 (centres unmarked) [Example 110, 2-(6-Chloro-2,3-dioxo-2,3-dihydro-indol-1-yl)-4-methyl-pentanoic acid pyridin-2-ylamide]
10 | 15.93 | – | CC(C)CC(C(=O)Nc1ccn(C)n1)N1C(=O)C(=O)c2ccc(Cl)cc21 (centres unmarked) [Example 111, 2-(6-Chloro-2,3-dioxo-2,3-dihydro-indol-1-yl)-4-methyl-pentanoic acid (1-methyl-1H-pyrazol-3-yl)-amide]
11 | 4.85 | – | CC(C)CC(C(=O)Nc1cnccn1)N1C(=O)C(=O)c2ccc(Cl)cc21 (centres unmarked) [Example 112, 2-(6-Chloro-2,3-dioxo-2,3-dihydro-indol-1-yl)-4-methyl-pentanoic acid pyrazin-2-ylamide]
12 | 2.64 | – | CC(C)CC(C(=O)Nc1cnccn1)N1C(=O)Cc2ccc(Cl)cc21 (centres unmarked) [Example 113, 2-(6-Chloro-2-oxo-2,3-dihydro-indol-1-yl)-4-methyl-pentanoic acid pyrazin-2-ylamide]
13 | 0.91 | – | CC(C)CC(C(=O)Nc1ccccn1)N1C(=O)Cc2ccc(Cl)cc21 (centres unmarked) [Example 114, 2-(6-Chloro-2-oxo-2,3-dihydro-indol-1-yl)-4-methyl-pentanoic acid pyridin-2-ylamide]
14 | 1.48 | – | CC(C)CC(C(=O)Nc1nccs1)N1C(=O)Cc2ccc(Cl)cc21 (centres unmarked) [Example 115, 2-(6-Chloro-2-oxo-2,3-dihydro-indol-1-yl)-4-methyl-pentanoic acid thiazol-2-ylamide]
15 | 7.27 | – | CC(C)CC(C(=O)Nc1ccn(C)n1)N1C(=O)Cc2ccc(Cl)cc21 (centres unmarked) [Example 116, 2-(6-Chloro-2-oxo-2,3-dihydro-indol-1-yl)-4-methyl-pentanoic acid (1-methyl-1H-pyrazol-3-yl)-amide]
16 | 0.6 | – | O=C1C(=O)N(C(CC2CCCC2)C(=O)Nc2nccs2)c2cc(Cl)ccc21 (centres unmarked) [Example 117, 2-(6-Chloro-2,3-dioxo-2,3-dihydro-indol-1-yl)-3-cyclopentyl-N-thiazol-2-yl-propionamide]

Row | SC1.5 (concentration of activator that produced a 50% increase in the activity of GK) [µM] | fold induction at 30 µM | SMILES
17 | 0.23 | – | O=C1C(=O)N(C(CC2CCCC2)C(=O)Nc2ccccn2)c2cc(Cl)ccc21 (centres unmarked) [Example 118, 2-(6-chloro-2,3-dioxo-2,3-dihydro-indol-1-yl)-3-cyclopentyl-N-pyridin-2-yl-propionamide]
18 | 2.24 | – | Cn1ccc(NC(=O)C(CC2CCCC2)N2C(=O)C(=O)c3ccc(Cl)cc32)n1 (centres unmarked) [Example 119, 2-(6-Chloro-2,3-dioxo-2,3-dihydro-indol-1-yl)-3-cyclopentyl-N-(1-methyl-1H-pyrazol-3-yl)-propionamide]
19 | 0.9 | – | O=C1C(=O)N(C(CC2CCCC2)C(=O)Nc2cnccn2)c2cc(Cl)ccc21 (centres unmarked) [Example 120, 2-(6-Chloro-2,3-dioxo-2,3-dihydro-indol-1-yl)-3-cyclopentyl-N-pyrazin-2-yl-propionamide]
20 | 0.38 | – | O=C(Nc1cnccn1)C(CC1CCCC1)N1C(=O)Cc2ccc(Cl)cc21 (centres unmarked) [Example 121, 2-(6-Chloro-2-oxo-2,3-dihydro-indol-1-yl)-3-cyclopentyl-N-pyrazin-2-yl-propionamide]
21 | 0.1 | – | O=C(Nc1ccccn1)C(CC1CCCC1)N1C(=O)Cc2ccc(Cl)cc21 (centres unmarked) [Example 122, 2-(6-Chloro-2-oxo-2,3-dihydro-indol-1-yl)-3-cyclopentyl-N-pyridin-2-yl-propionamide]
22 | 0.27 | – | O=C(Nc1nccs1)C(CC1CCCC1)N1C(=O)Cc2ccc(Cl)cc21 (centres unmarked) [Example 123, 2-(6-Chloro-2-oxo-2,3-dihydro-indol-1-yl)-3-cyclopentyl-N-thiazol-2-yl-propionamide]
23 | 1.1 | – | Cn1ccc(NC(=O)C(CC2CCCC2)N2C(=O)Cc3ccc(Cl)cc32)n1 (centres unmarked) [Example 124, 2-(6-Chloro-2-oxo-2,3-dihydro-indol-1-yl)-3-cyclopentyl-N-(1-methyl-1H-pyrazol-3-yl)-propionamide]
24 | 0.45 | – | O=C(Nc1nccs1)C(CC1CCCC1)N1C(=O)Cc2ccc(F)cc21 (centres unmarked) [Example 125, 3-Cyclopentyl-2-(6-fluoro-2-oxo-2,3-dihydro-indol-1-yl)-N-thiazol-2-yl-propionamide]
25 | 1.86 | – | Cn1ccc(NC(=O)C(CC2CCCC2)N2C(=O)Cc3ccc(F)cc32)n1 (centres unmarked) [Example 126, 3-Cyclopentyl-2-(6-fluoro-2-oxo-2,3-dihydro-indol-1-yl)-N-(1-methyl-1H-pyrazol-3-yl)-propionamide]
26 | 0.18 | – | O=C(Nc1ccccn1)C(CC1CCCC1)N1C(=O)Cc2ccc(F)cc21 (centres unmarked) [Example 127, 3-Cyclopentyl-2-(6-fluoro-2-oxo-2,3-dihydro-indol-1-yl)-N-pyridin-2-yl-propionamide]
27 | 0.81 | – | O=C(Nc1cnccn1)C(CC1CCCC1)N1C(=O)Cc2ccc(F)cc21 (centres unmarked) [Example 128, 3-Cyclopentyl-2-(6-fluoro-2-oxo-2,3-dihydro-indol-1-yl)-N-pyrazin-2-yl-propionamide]
28 | 0.53 | – | Cc1ccc2c(c1)N(C(CC1CCCC1)C(=O)Nc1nccs1)C(=O)C2 (centres unmarked) [Example 129, 3-Cyclopentyl-2-(6-methyl-2-oxo-2,3-dihydro-indol-1-yl)-N-thiazol-2-yl-propionamide]
29 | 0.61 | – | Cc1ccc2c(c1)N(C(CC1CCCC1)C(=O)Nc1cnccn1)C(=O)C2 (centres unmarked) [Example 130, 3-Cyclopentyl-2-(6-methyl-2-oxo-2,3-dihydro-indol-1-yl)-N-pyrazin-2-yl-propionamide]
30 | 2.28 | – | Cc1ccc2c(c1)N(C(CC1CCCC1)C(=O)Nc1ccn(C)n1)C(=O)C2 (centres unmarked) [Example 131, 3-Cyclopentyl-2-(6-methyl-2-oxo-2,3-dihydro-indol-1-yl)-N-(1-methyl-1H-pyrazol-3-yl)-propionamide]
31 | 0.23 | – | Cc1ccc2c(c1)N(C(CC1CCCC1)C(=O)Nc1ccccn1)C(=O)C2 (centres unmarked) [Example 132, 3-Cyclopentyl-2-(6-methyl-2-oxo-2,3-dihydro-indol-1-yl)-N-pyridin-2-yl-propionamide]
32 | 0.34 | – | O=C(Nc1cnccn1)C(CC1CCCC1)N1C(=O)Cc2ccc(Br)cc21 (centres unmarked) [Example 133, 2-(6-Bromo-2-oxo-2,3-dihydro-indol-1-yl)-3-cyclopentyl-N-pyrazin-2-yl-propionamide]
